{"source": "patent US20080033169A1", "about": "“Crystalline Form Of Cefdinir Ammonium Salt As An Intermediate For The Preparation Of Pure Cefdinir” (priority 2004, published 2008)", "key": {"water solubility": {"test": "water solubility", "format": "physicochemical", "conditions": "in water"}, "stability": {"test": "stability", "format": "physicochemical", "conditions": "crystalline salt"}}}
{"smiles": "C=CC1=C(C(=O)O)N2C(=O)[C@@H](NC(=O)/C(=N\\O)c3csc(N)n3)[C@H]2SC1.N", "note": "[Crystalline Cefdinir ammonium salt, Cefdinir ammonium salt]", "values": [{"measurement": "water solubility", "setting": "water solubility", "value": "complete"}, {"measurement": "stability", "setting": "stability", "value": "good"}]}
